{"source": "patent US12521329B2", "about": "“Antimicrobial mixture containing 4-(3-ethoxy-4-hydroxyphenyl) butan-2-one, and cosmetic composition containing same” (L'OREAL, priority 2017, dated 2026)", "test_in_all_cases": "MIC / synergy (FIC index) microplate growth test, optical density 620 nm", "type_in_all_cases": "cell-based", "key": {"[1]": {"tested_on": "Candida albicans ATCC 10231", "procedure": "The microbial strain Candida albicans ATCC 10231 and a double-concentration Sabouraud broth liquid culture medium were used.\n(§1) A 96-well microplate at an incubation temperature of 32.5° C. is used.\n(§2) The incubation time of the microplate for the abovementioned two strains is: • from 18 to 24 h aerobically for Candida albicans and Staphylococcus aureus. • from 24 hours to 48 hours aerobically for Aspergillus niger Tests\n(§3) A 10% (weight/volume) stock solution was prepared by mixing 1 g of compound in 9 ml of aqueous 1‰ agar solution. Successive dilutions were made with the 1‰ agar solution.\n(§4) 50 μl of each of the daughter solutions obtained containing compound A or B are added to the microplate wells. 100 μl of Sabouraud liquid nutrient broth inoculated at double concentration with the Candida albicans strain and 50 μl of aqueous 1‰ agar solution are also added thereto.\nas §4, with “and 50 μl of each of the daughter solutions obtained containing compound” for “or”, “strain” for “strain and 50 μl of aqueous 1‰ agar solution”\n(§5) A positive microbial growth control was also prepared. The positive microbial growth control corresponds to the mixture of 100 μl of aqueous 1‰ agar solution with 100 μl of Sabouraud liquid nutrient broth inoculated at double concentration with the Candida albicans strain in the absence of compounds A and B.\n(§6) An absorbance control was performed in parallel on compounds A and B alone. This control corresponds to 100 μl of double concentration sterile Sabouraud liquid nutrient broth+100 μl of double concentration compound A or B.\n(§7) In the three cases (absorbance control, growth control and test), the final volume present in each of the microplate wells is 200 μl.\n(§8) In the two cases (test and control), the inoculum represents the concentration of the Candida albicans strain present in the final volume of the wells (200 μl) and is between 2 and 6×10^5 cfu/ml of Candida albicans.\n(§9) The minimum inhibitory concentration (MIC) of each compound A and B alone and in combination was determined in a known manner by means of optical density measurements at a wavelength of 620 nm."}, "[2]": {"tested_on": "Aspergillus niger ATCC 6275", "settings": "Example 5", "from_the_text": "FIC Index=(MIC of A with B/MIC of A)+(MIC of B with A/MIC of B) with: • MIC of A with B: minimum concentration of product A in the combination A+B which makes it possible to obtain an inhibitory effect; • MIC of B with A: minimum concentration of product B in the combination A+B which makes it possible to obtain an inhibitory effect; • MIC of A: minimum inhibitory concentration of product A alone; • MIC of B: minimum inhibitory concentration of product B alone. […] A 96-well microplate at an incubation temperature of 32.5° C. is used. The incubation time of the microplate for the abovementioned two strains is: • from 18 to 24 h aerobically for Candida albicans and Staphylococcus aureus. • from 24 hours to 48 hours aerobically for Aspergillus niger Tests […] Successive dilutions were made with the 1‰ agar solution. 50 μl of each of the daughter solutions obtained containing compound A or B are added to the microplate wells. 100 μl of Sabouraud liquid nutrient broth inoculated at double concentration with the Candida albicans strain and 50 μl of aqueous 1‰ agar solution are also added thereto. 50 μl of each of the daughter solutions obtained containing compound A and 50 μl of each of the daughter solutions obtained containing compound B are added to the microplate wells. 100 μl of Sabouraud liquid nutrient broth inoculated at double concentration with the Candida albicans strain are also added thereto. A positive microbial growth control was also prepared. […] An absorbance control was performed in parallel on compounds A and B alone. This control corresponds to 100 μl of double concentration sterile Sabouraud liquid nutrient broth+100 μl of double concentration compound A or B. […] In the two cases (test and control), the inoculum represents the concentration of the Candida albicans strain present in the final volume of the wells (200 μl) and is between 2 and 6×10^5 cfu/ml of Candida albicans. […] The test as described above (tests, absorbance control and growth control) was performed again to test the combination A+B on the Staphylococcus aureus strain and on the Aspergillus niger strain as appropriate."}, "[3]": {"tested_on": "Staphylococcus aureus ATCC 6538", "settings": "Example 1", "procedure": "The microbial strain Staphylococcus aureus ATCC 6538 and a double-concentration nutrient broth liquid culture medium were used.\nas §1, §2, §3, §4\nas §4, with “and 50 μl of each of the daughter solutions obtained containing compound” for “or”, “strain” for “strain and 50 μl of aqueous 1‰ agar solution”\nas §5, §6, §7, §8, §9\nThe test as described above (tests, absorbance control and growth control) was performed again to test the combination A+B on the Staphylococcus aureus strain and on the Aspergillus niger strain as appropriate."}}, "data": [{"smiles": "N=C(N)c1ccc(OCCCCCCOc2ccc(C(=N)N)cc2)cc1", "note": "[B4, hexamidine diisethionate, reference compound]", "values": [{"measurement": "% MIC of B4 alone", "setting": "[1]; Example 4", "result": 0.005, "unit": "%"}, {"measurement": "microbial growth percentage", "setting": "[1]; Example 4, 0.00125 weight % B4 alone", "result": 78, "unit": "%"}, {"measurement": "microbial growth percentage", "setting": "[1]; Example 4, 0.0025 weight % B4 alone", "result": 59, "unit": "%"}, {"measurement": "microbial growth percentage", "setting": "[1]; Example 4, 0.005 weight % B4 alone", "result": 3, "unit": "%"}]}, {"smiles": "O=C1C(N(CO)C(=O)NCO)N(CO)C(=O)N1CO", "note": "(centres unmarked) [B3, 1-[1,3-bis(hydroxymethyl)-2,5-dioxoimidazolidin-4-yl]-1,3-bis(hydroxymethyl)urea]", "values": [{"measurement": "% MIC of B3 alone", "setting": "[1]; Example 3", "result": 0.125, "unit": "%"}, {"measurement": "microbial growth percentage", "setting": "[1]; Example 3, 0.0625 weight % B3 alone", "result": 55, "unit": "%"}, {"measurement": "microbial growth percentage", "setting": "[1]; Example 3, 0.125 weight % B3 alone", "result": 10, "unit": "%"}]}, {"smiles": "CCOc1cc(CCC(C)=O)ccc1O", "note": "[A, 4-(3-ethoxy-4-hydroxyphenyl)butan-2-one]", "values": [{"measurement": "% MIC of A alone", "setting": "[2]", "result": 0.25, "unit": "%"}, {"measurement": "microbial growth percentage", "setting": "[2]; 0.0625 weight % A alone", "result": 85, "unit": "%"}, {"measurement": "microbial growth percentage", "setting": "[2]; 0.125 weight % A alone", "result": 43, "unit": "%"}, {"measurement": "microbial growth percentage", "setting": "[2]; 0.25 weight % A alone", "result": 4, "unit": "%"}, {"measurement": "microbial growth percentage", "setting": "[3]; 0.0625 weight % A alone", "result": 87, "unit": "%"}, {"measurement": "microbial growth percentage", "setting": "[3]; 0.125 weight % A alone", "result": 77, "unit": "%"}, {"measurement": "microbial growth percentage", "setting": "[3]; 0.25 weight % A alone", "result": 78, "unit": "%"}, {"measurement": "microbial growth percentage", "setting": "[3]; 0.5 weight % A alone", "result": 4, "unit": "%"}, {"measurement": "% MIC of A alone", "setting": "[3]; growth <= 20%, or even < 25%", "result": 0.5, "unit": "%"}, {"measurement": "microbial growth percentage", "setting": "[1]; Example 1, 0.025 weight % A alone", "result": 84, "unit": "%"}, {"measurement": "microbial growth percentage", "setting": "[1]; Example 1, 0.05 weight % A alone", "result": 71, "unit": "%"}, {"measurement": "microbial growth percentage", "setting": "[1]; Example 1, 0.1 weight % A alone", "result": 48, "unit": "%"}, {"measurement": "microbial growth percentage", "setting": "[1]; Example 1, 0.2 weight % A alone", "result": 10, "unit": "%"}, {"measurement": "% MIC of A alone", "setting": "[1]; Example 1, growth <= 20%, or even < 25%", "result": 0.2, "unit": "%"}, {"measurement": "microbial growth percentage", "setting": "[1]; Example 2, 0.025 weight % A alone", "result": 52, "unit": "%"}, {"measurement": "microbial growth percentage", "setting": "[1]; Example 2, 0.05 weight % A alone", "result": 31, "unit": "%"}, {"measurement": "microbial growth percentage", "setting": "[1]; Example 2, 0.1 weight % A alone", "result": 18, "unit": "%"}, {"measurement": "% MIC A", "setting": "[1]; Example 2, A alone", "result": 0.1, "unit": "%"}, {"measurement": "% MIC of A alone", "setting": "[1]; Example 3", "result": 0.2, "unit": "%"}, {"measurement": "microbial growth percentage", "setting": "[1]; Example 3, 0.025 weight % A alone", "result": 71, "unit": "%"}, {"measurement": "microbial growth percentage", "setting": "[1]; Example 3, 0.05 weight % A alone", "result": 65, "unit": "%"}, {"measurement": "microbial growth percentage", "setting": "[1]; Example 3, 0.1 weight % A alone", "result": 44, "unit": "%"}, {"measurement": "microbial growth percentage", "setting": "[1]; Example 3, 0.2 weight % A alone", "result": 4, "unit": "%"}, {"measurement": "% MIC of A alone", "setting": "[1]; Example 4", "result": 0.2, "unit": "%"}, {"measurement": "microbial growth percentage", "setting": "[1]; Example 4, 0.025 weight % A alone", "result": 83, "unit": "%"}, {"measurement": "microbial growth percentage", "setting": "[1]; Example 4, 0.05 weight % A alone", "result": 71, "unit": "%"}, {"measurement": "microbial growth percentage", "setting": "[1]; Example 4, 0.1 weight % A alone", "result": 46, "unit": "%"}, {"measurement": "microbial growth percentage", "setting": "[1]; Example 4, 0.2 weight % A alone", "result": 6, "unit": "%"}, {"measurement": "% MIC of A alone", "setting": "[1]; Example 5", "result": 0.1, "unit": "%"}, {"measurement": "microbial growth percentage", "setting": "[1]; Example 5, 0.025 weight % A alone", "result": 56, "unit": "%"}, {"measurement": "microbial growth percentage", "setting": "[1]; Example 5, 0.05 weight % A alone", "result": 39, "unit": "%"}, {"measurement": "microbial growth percentage", "setting": "[1]; Example 5, 0.1 weight % A alone", "result": 17, "unit": "%"}]}, {"smiles": "Cc1cc(CC(C)CC(C)(C)C)n(O)c(=O)c1.NCCO", "note": "(centres unmarked) [B2, piroctone olamine, reference compound]", "values": [{"measurement": "microbial growth percentage", "setting": "[1]; Example 2, 0.00125 weight % B2 alone", "result": 35, "unit": "%"}, {"measurement": "microbial growth percentage", "setting": "[1]; Example 2, 0.0025 weight % B2 alone", "result": 0, "unit": "%"}]}]}
